Molecules are shown by their SMILES.

We go through six molecules from EP1438307B1, “DERIVATIVES OF 4-(THIO- OR SELENOXANTHENE-9-YLIDENE)-PIPERIDINE OR ACRIDINE AND ITS USE AS A SELECTIVE 5-HT2B RECEPTOR ANTAGONIST” (Biofrontera Pharmaceuticals GmbH, priority 2001, dated 2003).

The target of one assay is T1, 5-HT2A receptor (Homo sapiens, UniProt P28223).
T1 construct: expressed in transfected cells; host or cells: HEK293
Description: 5-HT2A receptor binding, [3H]ketanserin competition (counter screen). The settings on record: read-out: Receptor Affinity: pK Values 5-HT2A receptor (converted). How it is done:
5-HT2A receptors were labelled with [^3H]ketanserin in human cortex, in HEK293 cells expressing a cloned human 5-HT2A receptor and in HEK293 cells expressing the rat 5-HT2A receptor. For competition binding studies the ligand concentration was approximately 0.1 nM. For saturation binding studies concentrations of radioligand ranged from 0.01 nM to 2.0 nM. Assays were conducted in 0.5 ml of assay buffer (50 mM Tris-HCl, 4 mM calcium chloride, 0.1 % by weight ascorbic acid) (pH 7.4 at 4°C). Non-specifc binding was defined with […] unlabelled ketanserin. After a 60 min incubation at 32°C, membranes were harvested onto filters treated with 0.1 % by weight of polyethylenimine and the bound radioactivity was determined. Competition radioligand binding data was analyzed using a four parameter logistic equation and iterative curve-fitting techniques to obtain estimates of the IC50 and Hill slope. Kd values, determined from saturation binding studies were then used to calculate inhibition dissociation constants (Ki).
In general terms: Counterscreens check selectivity or assay interference.

Another assay deals with T2, human 5-HT2B receptor (Homo sapiens, UniProt P41595).
T2 construct: expressed in transfected cells; host or cells: HEK 293 (transient)
T2 sequence (P41595 whole entry): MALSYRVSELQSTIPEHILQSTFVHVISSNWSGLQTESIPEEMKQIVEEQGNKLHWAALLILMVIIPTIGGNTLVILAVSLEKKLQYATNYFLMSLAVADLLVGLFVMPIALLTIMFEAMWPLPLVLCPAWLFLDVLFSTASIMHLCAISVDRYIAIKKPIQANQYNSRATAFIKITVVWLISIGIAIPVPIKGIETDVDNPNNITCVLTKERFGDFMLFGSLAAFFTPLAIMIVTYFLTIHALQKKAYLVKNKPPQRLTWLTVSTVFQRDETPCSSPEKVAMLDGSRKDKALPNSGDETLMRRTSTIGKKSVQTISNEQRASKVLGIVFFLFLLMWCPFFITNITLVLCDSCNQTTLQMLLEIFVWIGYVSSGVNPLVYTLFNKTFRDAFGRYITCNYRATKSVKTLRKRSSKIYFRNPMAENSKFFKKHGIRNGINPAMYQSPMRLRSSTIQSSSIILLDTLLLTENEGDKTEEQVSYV
Description: Cloned human 5-HT2B receptor binding assay, [3H]-5HT. The settings on record: HEK 293 cells transfected with human 5-HT2B receptor, read-out: Receptor Affinity: pK Values 5HT2B receptor (converted). How it is done:
The following describes an in vitro binding assay utilizing cloned 5-HT2B receptors radiolabelled with [^3H]-5HT. HEK 293 cells transiently transfected with an expression plasmid pXMD1-hu2B encoding the human 5-HT2B receptor (see Schmuck et al., FEBS Lett., 1994, 342, 85-90) were used as described previously (Schmuck et al., Eur. J. Pharmacol., 1996, 8, 959-967). Two days after transfection cells were harvested, pelleted at 500g for 5 min at 4°C, gently resuspended in ice-cold buffer1 (50 mM TRIS pH 7.7, 4 mM CaCl2) and homogenized using a Polytron PT 1200 tissue homogenizer (position 6 for 30 s). Cells were pelleted at 50,000g, 4°C for 10 min, washed with buffer1 and pelleted again. The final pellet was resuspended in incubation buffer (50 mM TRIS pH 7.7, 4 mM CaCl2, 10 µM pargyline and 0.1 % by weight ascorbic acid). The binding assay consisted of 300 µl of membrane suspension (protein concentration = 0.3 to 0.5 mg/ml), 150 µl of competing drug and 50 µl of [^3H]5-HT at a final concentration of 4 to 5 nM. The mixture was incubated at 37°C for 30 min and the assay terminated by rapid filtration and two washing steps with 5 ml of cold 20 mM Tris-HCl pH = 7.5, and 154 mM NaCl over Whatman GFB filters. Filters were counted by liquid scintillation. Non-specific binding was determined in the presence of an excess of 5-HT (100 µM). Bound radioligand represented less than 1 % of free radioligand. In competition experiments, specific binding represented about 60 % of total binding. Results expressed as pKi values are shown in Table 1 Human 5-HT2B receptors were labelled in HEK293 cells as described above, except that the radioligand was [^3H]-5HT and that the assay buffer contained pargyline in a concentration of […] and 0.1 % by weight of ascorbic acid. For competition binding studies the radioligand concentration was approximately 0.4 nM while for saturation binding studies the concentration of [^3H]-5HT ranged from 0.05 to 8 nM. Non-specific binding was defined with […]. Incubations were for 120 min at 4°C. Competition radioligand binding data was analyzed using a four parameter logistic equation and iterative curve-fitting techniques to obtain estimates of the IC50 and Hill slope. Kd values, determined from saturation binding studies were then used to calculate inhibition dissociation constants (Ki).

Another assay has as its target T3, human H1 receptor (Homo sapiens, UniProt P35367).
T3 construct: expressed in transfected cells; host or cells: COS-7 (transient)
Kind of assay: Cloned human H1 receptor binding assay, [3H]-mepyramine. The settings on record: COS-7 cells transfected with human H1 receptor, read-out: Receptor Affinity: pK Values H1 receptor (converted). As for the experimental part: COS-7 cells were transiently transfected with an expression plasmid pCineohH1, pCineohH2, pCineohH3 and pCineohH4 encoding the human Histamine H1, H2. H3 or H4 receptor, respectively. Transfected cells were harvested after 48 h, homogenized in ice-cold 50 mM Na2/potassium phosphate buffer (pH 7.4) and used for radioligand binding studies. Cell homogenates (40 - 50 µg of protein) were incubated for 30 min at 25°C in 50 mM Na2/potassium phosphate buffer (pH 7.4) in 400 µl with the various concentrations of either [^3H]-mepyramine, [^3H]-thiotidine, [^3H]-R-α-Methylhistamine, and [^3H]-pyramilamine for cells expressing recombinant human H1, H2. H3 and H4 receptors, respectively. The nonspecific binding was defined in the presence of 1 µM mianserin. In displacement studies, cell homogenated were incubated either with 1 nM [^3H]-mepyramine, 15 nM [^3H]-thiotidine, 0.5 nM [^3H]-R-α-Methylhistamine, or 15 nM [^3H]-pyramilamine and increasing concentrations of competing ligands. The incubations were stopped by rapid dilution with 3 ml of ice-cold 50 mM Na2/potassium phosphate buffer (pH 7.4). The bound radioactivity was seperated by filatration through Whatman GF/C filters that had been treated with 0.3 % polyethyleneimine. Filters were washed twice in 3 ml of buffer and radioactivity retained on the filters was measured by liquid scinitllation counting. The concentration of 1-methyl-4-(3-ethoxy-9H-thioxanthene-9-ylidene)-piperidine producing 50% inhibition of binding (IC50) was determined using iterative curve fitting techniques.

A further assay concerns the target T4, 5-HT2C receptor (Homo sapiens, UniProt P28335).
T4 construct: expressed in transfected cells; host or cells: Cos-7
T4 sequence (P28335 33-458): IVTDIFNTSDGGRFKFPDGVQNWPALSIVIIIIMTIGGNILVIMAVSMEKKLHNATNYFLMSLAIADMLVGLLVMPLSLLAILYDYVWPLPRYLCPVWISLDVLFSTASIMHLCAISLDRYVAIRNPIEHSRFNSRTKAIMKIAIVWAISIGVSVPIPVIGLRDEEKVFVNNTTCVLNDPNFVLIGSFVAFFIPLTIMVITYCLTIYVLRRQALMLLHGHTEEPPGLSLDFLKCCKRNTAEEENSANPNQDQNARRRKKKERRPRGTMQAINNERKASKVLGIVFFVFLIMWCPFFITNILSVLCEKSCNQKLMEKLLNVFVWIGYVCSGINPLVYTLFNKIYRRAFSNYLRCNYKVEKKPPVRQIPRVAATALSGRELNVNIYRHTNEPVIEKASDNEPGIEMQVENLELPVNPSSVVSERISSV
Kind of assay: 5-HT2C receptor binding, [3H]mesulergine competition (counter screen). The settings on record: read-out: Receptor Affinity: pK Values 5NT2C receptor (converted). As for the experimental part:
5-HT2C receptors were labelled in choroid plexus, Cos-7 cells expressing the human 5-HT2C receptor and in NIH-3T3 expressing the […]. Assays were conducted as described for the 5-HT2A receptor except that the radioligand was [^3H]mesulergine. The radioligand concentration for competition studies was approximately 0.2 nM while for saturation binding studies the concentration ranged from 0.1 to 18 nM. Non-specific binding was defined with 10 µM unlabelled mesulergine. Competition radioligand binding data was analyzed using a four parameter logistic equation and iterative curve-fitting techniques to obtain estimates of the IC50 and Hill slope. Kd values, determined from saturation binding studies were then used to calculate inhibition dissociation constants (Ki).

T3 sequence (P35367 whole entry): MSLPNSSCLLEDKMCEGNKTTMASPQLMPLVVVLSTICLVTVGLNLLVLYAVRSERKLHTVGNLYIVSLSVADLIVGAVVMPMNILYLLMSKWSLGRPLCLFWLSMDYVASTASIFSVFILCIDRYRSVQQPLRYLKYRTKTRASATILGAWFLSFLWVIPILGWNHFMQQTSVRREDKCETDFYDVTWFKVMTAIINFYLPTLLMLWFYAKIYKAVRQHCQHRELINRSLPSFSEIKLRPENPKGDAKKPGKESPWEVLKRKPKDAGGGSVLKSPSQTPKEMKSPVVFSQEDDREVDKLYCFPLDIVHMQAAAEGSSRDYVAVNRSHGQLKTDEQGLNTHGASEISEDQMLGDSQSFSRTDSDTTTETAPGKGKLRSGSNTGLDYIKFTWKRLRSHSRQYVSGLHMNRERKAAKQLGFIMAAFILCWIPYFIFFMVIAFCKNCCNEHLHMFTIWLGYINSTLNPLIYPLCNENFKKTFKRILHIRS
T1 sequence (P28223 whole entry): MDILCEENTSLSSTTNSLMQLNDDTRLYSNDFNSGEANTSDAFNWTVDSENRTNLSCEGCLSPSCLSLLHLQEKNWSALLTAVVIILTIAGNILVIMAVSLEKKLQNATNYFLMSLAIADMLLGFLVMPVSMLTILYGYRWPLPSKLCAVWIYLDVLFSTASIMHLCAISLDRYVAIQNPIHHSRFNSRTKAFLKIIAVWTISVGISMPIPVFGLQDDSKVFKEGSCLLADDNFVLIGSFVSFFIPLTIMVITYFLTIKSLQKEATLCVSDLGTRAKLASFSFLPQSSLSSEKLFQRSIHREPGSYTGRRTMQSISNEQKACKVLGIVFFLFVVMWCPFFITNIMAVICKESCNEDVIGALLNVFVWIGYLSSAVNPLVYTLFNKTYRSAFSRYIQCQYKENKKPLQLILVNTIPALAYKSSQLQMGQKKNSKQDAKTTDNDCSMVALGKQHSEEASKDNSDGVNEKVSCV

For `CCOc1ccc2c(c1)Sc1cccc(OC)c1C2=C1CCN(C)CC1` [4-(6-Ethoxy-1-methoxy-thioxanthen-9-yliden)-1-methyl-piperidine], the Ki was 1.02 nM on 5-HT2A receptor, 0.0447 nM on human 5-HT2B receptor, 3.72 nM at human H1 receptor and 17 nM at 5-HT2C receptor.

Consider `COc1ccc2c(c1)Sc1cccc(OC)c1C2=C1CCN(C)CC1` [4-(6-Methoxy-1-methoxy-thioxanthen-9-yliden)-1-methyl-piperidine], for which the Ki on 5-HT2A receptor is 0.0427 nM; on human 5-HT2B receptor, 0.00871 nM; on human H1 receptor, 0.129 nM; on 5-HT2C receptor, 1.55 nM.

In the case of `CCOc1ccc2c(c1)Nc1ccccc1C2=C1CCN(C)CC1` [3-Ethoxy-9-(1-methyl-piperidine-4-ylidene)-9,10-dihydro-acridine], the Ki is 1.17 nM at 5-HT2A receptor, 0.741 nM on human 5-HT2B receptor, 29.5 nM on human H1 receptor and 37.2 nM at 5-HT2C receptor.

As to `COc1cccc2c1C(=C1CCN(C)CC1)c1ccc(C(C)C)cc1S2` [4-(6-Isopropyl-1-methoxy-thioxanthen-9-yliden)-1-methyl-piperidine], the Ki was 0.741 nM on 5-HT2A receptor, 0.17 nM on human 5-HT2B receptor, 10.5 nM at human H1 receptor and 16.2 nM on 5-HT2C receptor.

Regarding `CC(C)c1ccc2c(c1)Sc1cccc(O)c1C2=C1CCN(C)CC1` [4-(6-Isopropyl-1-hydroxy-thioxanthen-9-yliden)-1-methyl-piperidine], the Ki at 5-HT2A receptor was 0.776 nM; on human 5-HT2B receptor it was 0.12 nM; on human H1 receptor, 35.5 nM; at 5-HT2C receptor, 30.2 nM.

For `CCOc1ccc2c(c1)Sc1cccc(O)c1C2=C1CCN(C)CC1` [4-(6-Ethoxy-1-hydroxy-thioxanthen-9-yliden)-1-methyl-piperidine], the Ki was 1.51 nM at 5-HT2A receptor, 0.0115 nM on human 5-HT2B receptor, 36.3 nM on human H1 receptor and 13.8 nM on 5-HT2C receptor.
